Assay results from US20260265259A1, “SUBSTITUTED 6-IMIDAZOPYRIDAZINE IL-17A MODULATORS AND USES THEREOF” (DICE ALPHA, INC., priority 2023, published 2026).

Each molecule was assayed on IL-17A/A (assay: IL-17A/A HEK-Blue cell assay). Settings: HEK-Blue, 20 h, IL-17A/A inhibition, HEK-Blue IL-17A reporter cell line, IL17A/A 5 ng/mL, SEAP read at A630, read-out: AA IC50.
Assay type: cell-based
Method: The HEK-Blue IL-17A reporter cell line (Fisher #NC1408637) was used for cell-based IL-17A/A inhibition assays. Cells were grown and prepared for assays according to the manufacturer's instructions. This cell line consists of HEK 293 cells that were designed to expressed IL-17RA, IL-17RC, and the Act1 adapter molecule, the combination of which, when stimulated by IL-17A/A or IL17A/F activates a NFκB promoter and drives expression of the recombinant Secreted Alkaline Phosphatase (SEAP) gene. Media from the cells is then added to a development reagent (Quanti-Blue Substrate, Fisher #NC9711613), and read at A630.
Compounds were dispensed in DMSO to an empty clear 384-well tissue culture plate in a titration ranging from 10 μM to 27 pM, with DMSO added to every well to a final concentration of 0.1%. Cells were then added to the plate (45 μL/well at a concentration of 280,000 cells/mL). IL17A/A (Genscript #Z03228) or IL17A/F (R&D Systems) was added to the plate to a final concentration of 5 ng/mL and a final well volume of 50 μL. The cells, compound, and IL-17A/A or IL17A/F were then incubated for 20 hours before media was removed for SEAP analysis. The resulting inhibition curve was then analyzed using Dotmatics' integrated 4-parameter fit screening protocol to generate IC50 values.

Row | SMILES | IC50
1 | CCn1nccc1C(=O)N[C@H](c1cn2nc(C[C@H]3C[C@@H](C(F)(F)F)CNC3=O)c(N3CC(OC)C3)cc2n1)C1CCC(F)(F)CC1 [Compound 79] | < 100 nM
2 | CCn1nccc1C(=O)N[C@H](c1cn2nc(C[C@H]3C[C@@H](C(F)(F)F)CNC3=O)c(C3CCCOC3)cc2n1)C1CCC(F)(F)CC1 (some centres unmarked) [Compound 7] | 100 to 1000 nM
3 | O=C(N[C@H](c1cn2nc(C[C@H]3C[C@@H](C(F)(F)F)CNC3=O)c(C3CCOC3)cc2n1)[C@H]1CCCC(F)(F)C1)c1nonc1C1CC1 (some centres unmarked) [Compound 69] | < 100 nM
4 | CCn1nccc1C(=O)N[C@H](c1cn2nc(C[C@H]3C[C@@H](C(F)(F)F)CNC3=O)c(N3CCN(C4CC4)CC3)cc2n1)C1CCC(F)(F)CC1 [Compound 80] | < 100 nM
5 | CCn1nccc1C(=O)N[C@H](c1cn2nc(C[C@H]3C[C@@H](C(F)(F)F)CNC3=O)c(N3CCN(C)CC3)cc2n1)C1CCC(F)(F)CC1 [Compound 20] | < 100 nM
6 | CC(C)n1nccc1C(=O)N[C@H](c1cn2nc(C[C@H]3C[C@@H](C(F)(F)F)CNC3=O)c(C3CCOCC3)cc2n1)C1CCC(F)(F)CC1 [Compound 75] | < 100 nM
7 | CCn1nccc1C(=O)N[C@H](c1cn2nc(C[C@@H]3C[C@@H](C(F)(F)F)CNC3=O)c(N3CCC3)cc2n1)C1CCC(F)(F)CC1 [Compound 24] | > 1000 nM
8 | CCn1nccc1C(=O)N[C@H](c1cn2nc(C[C@H]3C[C@@H](C(F)(F)F)CNC3=O)c(C3CCN(C)CC3)cc2n1)C1CCC(F)(F)CC1 [Compound 60] | 100 to 1000 nM
9 | CCn1nccc1C(=O)N[C@H](c1cn2nc(C[C@H]3C[C@@H](C(F)(F)F)CNC3=O)c(C3COCCO3)cc2n1)C1CCC(F)(F)CC1 (some centres unmarked) [Compound 94] | 100 to 1000 nM
10 | CCn1nccc1C(=O)N[C@H](c1cn2nc(C[C@H]3C[C@@H](C(F)(F)F)CNC3=O)c(N3CCN4CCOC[C@@H]4C3)cc2n1)C1CCC(F)(F)CC1 [Compound 104, N—((S)-(4,4-difluorocyclohexyl)(7-((S)-hexahydropyrazino[2,1-c][1,4]oxazin-8(1H)-yl)-6-(((3R,5R)-2-oxo-5-(trifluoromethyl)piperidin-3-yl)methyl)imidazo[1,2-b]pyridazin-2-yl)methyl)-1-ethyl-1H-pyrazole-5-carboxamide] | < 100 nM
11 | CCn1nccc1C(=O)N[C@H](c1cn2nc(C[C@H]3C[C@@H](C(F)(F)F)CNC3=O)c(N3CCCCC3)cc2n1)C1CCC(F)(F)CC1 [Compound 18] | < 100 nM
12 | CCn1nccc1C(=O)N[C@H](c1cn2nc(C[C@H]3C[C@@H](C(F)(F)F)CNC3=O)c(N3CC(F)(F)C3)cc2n1)C1CCC(F)(F)CC1 [Compound 41] | 100 to 1000 nM

The remaining lines, values ahead:

Row | IC50 | SMILES
13 | < 100 nM | CCn1nccc1C(=O)N[C@H](c1cn2nc(C[C@H]3C[C@@H](C(F)(F)F)CNC3=O)c(N3CCC4(COC4)C3)cc2n1)C1CCC(F)(F)CC1 [Compound 49]
14 | 100 to 1000 nM | CCn1nccc1C(=O)N[C@H](c1cn2nc(C[C@H]3C[C@@H](C(F)(F)F)CNC3=O)c(-c3cncnc3)cc2n1)C1CCC(F)(F)CC1 [Compound 4]
15 | < 100 nM | CCn1nccc1C(=O)N[C@H](c1cn2nc(C[C@H]3C[C@@H](C(F)(F)F)CNC3=O)c(C3CCOCC3)cc2n1)[C@H]1CCCC(F)(F)C1 [Compound 55]
16 | 100 to 1000 nM | CCn1nccc1C(=O)N[C@H](c1cn2nc(C[C@@H]3C[C@@H](C(F)(F)F)CNC3=O)c(-c3cccnc3)cc2n1)C1CCC(F)(F)CC1 [Compound 8]
17 | < 100 nM | CCn1nccc1C(=O)N[C@H](c1cn2nc(C[C@H]3C[C@@H](C(F)(F)F)CNC3=O)c(C3CCOC3)cc2n1)C1CCC(F)(F)CC1 (some centres unmarked) [Compound 6]
18 | < 100 nM | CCn1nccc1C(=O)N[C@H](c1cn2nc(C[C@H]3C[C@@H](C(F)(F)F)CNC3=O)c(C3CCCCO3)cc2n1)C1CCC(F)(F)CC1 (some centres unmarked) [Compound 84]
19 | < 100 nM | CCn1nccc1C(=O)N[C@H](c1cn2nc(C[C@H]3C[C@@H](C(F)(F)F)CNC3=O)c(N3CCOCC3)cc2n1)[C@@H]1CCCC(F)(F)C1 [Compound 26]
20 | < 100 nM | CCn1nccc1C(=O)N[C@H](c1cn2nc(C[C@H]3C[C@@H](C(F)(F)F)CNC3=O)c(C3CCOCC3)cc2n1)C1CCC(C)CC1 (some centres unmarked) [Compound 86]
21 | 100 to 1000 nM | O=C(N[C@H](c1cn2nc(C[C@H]3C[C@@H](C(F)(F)F)CNC3=O)c(N3CC(F)(F)C3)cc2n1)C1CCC(F)(F)CC1)c1nonc1C1CC1 [Compound 40]
22 | < 100 nM | CCn1nccc1C(=O)N[C@H](c1cn2nc(C[C@H]3C[C@@H](C(F)(F)F)CNC3=O)c(N3CCCC3)cc2n1)C1CCC(F)(F)CC1 [Compound 22]
23 | < 100 nM | CCn1nccc1C(=O)N[C@H](c1cn2nc(C[C@H]3C[C@@H](C(F)(F)F)CNC3=O)c(C3CCCOC3)cc2n1)[C@@H]1CCCC(F)(F)C1 (some centres unmarked) [Compound 64]
24 | < 100 nM | CCn1nccc1C(=O)N[C@H](c1cn2nc(C[C@H]3C[C@@H](C(F)(F)F)CNC3=O)c(C3CCOCC3)cc2n1)[C@@H]1CCCC(F)(F)C1 [Compound 56]
25 | < 100 nM | CCn1nccc1C(=O)N[C@H](c1cn2nc(C[C@H]3C[C@@H](C(F)(F)F)CNC3=O)c(CN(C)C)cc2n1)C1CCC(F)(F)CC1 [Compound 111, N—((S)-(4,4-difluorocyclohexyl)(7-((dimethylamino)methyl)-6-(((3R,5R)-2-oxo-5-(trifluoromethyl)piperidin-3-yl)methyl)imidazo[1,2-b]pyridazin-2-yl)methyl)-1-ethyl-1H-pyrazole-5-carboxamide]
26 | < 100 nM | O=C(N[C@H](c1cn2nc(C[C@H]3C[C@@H](C(F)(F)F)CNC3=O)c(C3CCOCC3)cc2n1)[C@H]1CCCC(F)(F)C1)c1nonc1C1CC1 [Compound 57]
27 | < 100 nM | CCn1nccc1C(=O)N[C@H](c1cn2nc(C[C@H]3C[C@@H](C(F)(F)F)CNC3=O)c(CN(C)C3CC3)cc2n1)C1CCC(F)(F)CC1 [Compound 113, N—((S)-(7-((cyclopropyl(methyl)amino)methyl)-6-(((3R,5R)-2-oxo-5-(trifluoromethyl)piperidin-3-yl)methyl)imidazo[1,2-b]pyridazin-2-yl)(4,4-difluorocyclohexyl)methyl)-1-ethyl-1H-pyrazole-5-carboxamide]
28 | 100 to 1000 nM | CCn1nccc1C(=O)N[C@H](c1cn2nc(C[C@@H]3C[C@@H](C(F)(F)F)CNC3=O)c(C3CCOC3)cc2n1)C1CCC(F)(F)CC1 (some centres unmarked) [Compound 10]
29 | 100 to 1000 nM | CCn1nccc1C(=O)N[C@H](c1cn2nc(C[C@H]3C[C@@H](C(F)(F)F)CNC3=O)c(C3=CCOC3)cc2n1)C1CCC(F)(F)CC1 [Compound 58]

Same assay, conditions: IL-17A/A inhibition, HEK-Blue IL-17A reporter cell line, IL17A/A 5 ng/mL, 20 hours, SEAP read at A630; read-out: AA IC50

Row | IC50 | SMILES
30 | < 100 nM | CCn1nccc1C(=O)N[C@H](c1cn2nc(C[C@@H]3C[C@@H](C(F)(F)F)CNC3=O)c(N3CCOCC3C)cc2n1)C1CCC(F)(F)CC1 (some centres unmarked) [Compound 97]
31 | < 100 nM | CCn1nccc1C(=O)N[C@H](c1cn2nc(C[C@H]3C[C@@H](C(F)(F)F)CNC3=O)c(N3CCOC(C)C3)cc2n1)C1CCC(F)(F)CC1 (some centres unmarked) [Compound 34]
32 | > 1000 nM | CCn1nccc1C(=O)N[C@H](c1cn2nc(C[C@@H]3C[C@@H](C(F)(F)F)CNC3=O)c(N3CCOCC3C)cc2n1)C1CCC(F)(F)CC1 (some centres unmarked) [Compound 96]
33 | < 100 nM | CCn1nccc1C(=O)N[C@H](c1cn2nc(C[C@H]3C[C@@H](C(F)(F)F)CNC3=O)c(N3CC4CC3CO4)cc2n1)C1CCC(F)(F)CC1 (some centres unmarked) [Compound 52]
34 | 100 to 1000 nM | CCn1nccc1C(=O)N[C@H](c1cn2nc(C[C@H]3C[C@@H](C(F)(F)F)CNC3=O)c(C3CCCOC3)cc2n1)C1CCC(F)(F)CC1 (some centres unmarked) [Compound 2]
35 | 100 to 1000 nM | CCn1nccc1C(=O)N[C@H](c1cn2nc(C[C@@H]3C[C@@H](C(F)(F)F)CNC3=O)c(C3CCOC3)cc2n1)C1CCC(F)(F)CC1 (some centres unmarked) [Compound 11]
